Test results from publication PMC7993140 (Medicinal chemistry research : an international journal for …, 2020).

Target: T1, TDP2 (14M_zTDP2) (Danio rerio, UniProt Q5XJA0)
T1 sequence (Q5XJA0 121-369): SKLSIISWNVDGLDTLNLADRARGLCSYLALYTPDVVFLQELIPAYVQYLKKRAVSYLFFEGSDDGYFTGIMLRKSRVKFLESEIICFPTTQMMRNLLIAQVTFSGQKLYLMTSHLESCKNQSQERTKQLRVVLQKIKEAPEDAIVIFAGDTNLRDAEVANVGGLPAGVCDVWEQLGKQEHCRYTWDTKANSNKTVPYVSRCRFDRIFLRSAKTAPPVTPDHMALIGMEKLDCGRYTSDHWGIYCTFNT
Experiment: 14M_zTDP2 fluorescence-based biochemical assay
Settings: at concentrations up to 50 μM
With O=C1NC(=O)c2ccccc2/C1=C/NCc1ccc(O)cc1 [11b, (Z)-4-(((4-hydroxybenzyl)amino)methylene)isoquinoline-1,3(2H,4H)-dione] the “TDP2 inhibition at 50 μM” value was “no inhibition”. For O=C1NC(=O)c2ccccc2C1=Cc1ccc[nH]1 [12d, 4-((1H-pyrrol-2-yl)methylene)isoquinoline-1,3(2H,4H)-dione], the “TDP2 inhibition at 50 μM” value was “no activity”. With Cn1cccc1C=C1C(=O)NC(=O)c2ccccc21 [12e, 4-((1-methyl-1H-pyrrol-2-yl)methylene)isoquinoline-1,3(2H,4H)-dione] the “TDP2 inhibition at 50 μM” value was “no activity”. In the case of O=C1NC(=O)c2ccccc2C1=Cc1cccs1 [12f, 4-(thiophen-2-ylmethylene)isoquinoline-1,3(2H,4H)-dione], the “TDP2 inhibition at 50 μM” value is reported as “no activity”. With O=C1NC(=O)c2ccccc2C1=Cc1ccsc1 [12g, 4-(thiophen-3-ylmethylene)isoquinoline-1,3(2H,4H)-dione] the “TDP2 inhibition at 50 μM” value was “no activity”.

Same assay, conditions: no concentration stated at the place
In the case of O=C1NC(=O)c2ccccc2C1=Cc1ccncc1 [12c, 4-(pyridin-4-ylmethylene)isoquinoline-1,3(2H,4H)-dione], the “TDP2 inhibition” value is reported as “reasonable potency”.

Same assay, conditions: read-out: IC50 (TDP2 inhibition); in-house fluorescence-based biochemical assay; 25 °C, 60 min
O=C1NC(=O)c2ccccc2C1=Cc1ccc2[nH]ncc2c1 [12h, 4-((1H-indazol-5-yl)methylene)isoquinoline-1,3(2H,4H)-dione] showed an IC50 of 19 µM. Work on O=C1NC(=O)c2ccccc2C1=Cc1ccc2[nH]ccc2c1 [12i, 4-((1H-indol-5-yl)methylene)isoquinoline-1,3(2H,4H)-dione] yielded an IC50 of 13 µM. With O=C1NC(=O)c2ccccc2C1=Cc1ccc(O)cc1 [12k, 4-(4-hydroxybenzylidene)isoquinoline-1,3(2H,4H)-dione] the IC50 was 10 µM. O=C1NC(=O)c2ccccc2C1=Cc1ccc(C(=O)O)cc1 [12q, 4-((1,3-dioxo-2,3-dihydroisoquinolin-4(1H)-ylidene)methyl)benzoic acid] showed an IC50 of 4.8 µM. In the case of O=C1Cc2ccccc2C(=O)N1 [compound 8, isoquinoline-1,3-dione, reference compound], the IC50 is reported as 22 µM.

System: TDP2
Experiment: not given
Settings: read-out: previously reported IC50; previously reported value; cited from earlier work
For O=C1Cc2ccccc2C(=O)N1 [compound 8, isoquinoline-1,3-dione, reference compound], the IC50 is listed as 25 µM.
